Assay results reported in PubChem BioAssay (NCI).
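Tested at 5 concentrations; 48 h exposure; 96-well plates; endpoints linearly interpolated, else capped at highest concentration. TGI: concentration producing complete growth inhibition.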

Legend:
Experiment in all cases: NCI tumour cell line growth inhibition, 48 h
786-0 renal = system: 786-0 renal
A498 renal = system: A498 renal
A549 NSCLC = system: A549 NSCLC
ACHN renal = system: ACHN renal
BT-549 breast = system: BT-549 breast
CAKI-1 renal = system: CAKI-1 renal
CCRF-CEM leukemia = system: CCRF-CEM leukemia
COLO 205 colon = system: COLO 205 colon
DU-145 prostate = system: DU-145 prostate
EKVX NSCLC = system: EKVX NSCLC
HCC-2998 colon = system: HCC-2998 colon
HCT-116 colon = system: HCT-116 colon
HCT-15 colon = system: HCT-15 colon
HL-60(TB) leukemia = system: HL-60(TB) leukemia
HOP-92 NSCLC = system: HOP-92 NSCLC
HS 578T breast = system: HS 578T breast
HT29 colon = system: HT29 colon
K-562 leukemia = system: K-562 leukemia
KM12 colon = system: KM12 colon
LOX IMVI melanoma = system: LOX IMVI melanoma
M14 melanoma = system: M14 melanoma
MALME-3M melanoma = system: MALME-3M melanoma
MCF7 breast = system: MCF7 breast
MDA-MB-231 breast = system: MDA-MB-231 breast
MDA-MB-435 = system: MDA-MB-435
MDA-N = system: MDA-N
MOLT-4 leukemia = system: MOLT-4 leukemia
NCI-H226 lung = system: NCI-H226 lung
NCI-H23 lung = system: NCI-H23 lung
NCI-H460 lung = system: NCI-H460 lung
NCI/ADR-RES ovarian = system: NCI/ADR-RES ovarian
OVCAR-3 ovarian = system: OVCAR-3 ovarian
OVCAR-5 ovarian = system: OVCAR-5 ovarian
OVCAR-8 ovarian = system: OVCAR-8 ovarian
PC-3 prostate = system: PC-3 prostate
RXF 393 renal = system: RXF 393 renal
SF-268 CNS = system: SF-268 CNS
SF-295 CNS = system: SF-295 CNS
SF-539 CNS = system: SF-539 CNS
SK-MEL-2 melanoma = system: SK-MEL-2 melanoma
SK-MEL-28 melanoma = system: SK-MEL-28 melanoma
SK-MEL-5 melanoma = system: SK-MEL-5 melanoma
SK-OV-3 ovarian = system: SK-OV-3 ovarian
SN12C renal = system: SN12C renal
SNB-75 CNS = system: SNB-75 CNS
SW-620 colon = system: SW-620 colon
T-47D breast = system: T-47D breast
TK-10 renal = system: TK-10 renal
U251 CNS = system: U251 CNS
UACC-257 melanoma = system: UACC-257 melanoma
UACC-62 melanoma = system: UACC-62 melanoma
UO-31 renal = system: UO-31 renal

Question: `CC(C)C1OC2(C)OC(=N)C1(C#N)C(C#N)(C#N)C2C` (configuration not stated) was tested. Which TGI (786-0 renal) did it give?
Answer: 51.7 µM

Question: And the TGI (A498 renal)?
Answer: > 100 µM

Question: What about the TGI (A549 NSCLC) of the same molecule?
Answer: > 100 µM

Question: What about the TGI (ACHN renal) of the same molecule?
Answer: > 100 µM

Question: And the TGI (BT-549 breast)?
Answer: > 100 µM

Question: And the TGI (CAKI-1 renal)?
Answer: 22.8 µM

Question: And the TGI (CCRF-CEM leukemia)?
Answer: 51.4 µM

Question: What about the TGI (COLO 205 colon) of the same molecule?
Answer: 27.6 µM

Question: What about the TGI (DU-145 prostate) of the same molecule?
Answer: > 100 µM

Question: And the TGI (EKVX NSCLC)?
Answer: 53.4 µM

Question: And the TGI (HCC-2998 colon)?
Answer: 30.7 µM

Question: And the TGI (HCT-116 colon)?
Answer: 78.2 µM

Question: What about the TGI (HCT-15 colon) of the same molecule?
Answer: 25.3 µM

Question: And the TGI (HL-60(TB) leukemia)?
Answer: 37 µM

Question: What about the TGI (HOP-92 NSCLC) of the same molecule?
Answer: 34.7 µM

Question: What about the TGI (HS 578T breast) of the same molecule?
Answer: 69.4 µM

Question: And the TGI (HT29 colon)?
Answer: 41 µM

Question: And the TGI (K-562 leukemia)?
Answer: > 100 µM

Question: What about the TGI (KM12 colon) of the same molecule?
Answer: > 100 µM

Question: What about the TGI (LOX IMVI melanoma) of the same molecule?
Answer: 41.5 µM

Question: What about the TGI (M14 melanoma) of the same molecule?
Answer: 30.5 µM

Question: And the TGI (MALME-3M melanoma)?
Answer: 57.8 µM

Question: What about the TGI (MCF7 breast) of the same molecule?
Answer: 41.7 µM

Question: And the TGI (MDA-MB-231 breast)?
Answer: 31.8 µM

Question: And the TGI (MDA-MB-435)?
Answer: > 100 µM

Question: And the TGI (MDA-N)?
Answer: 29.8 µM

Question: And the TGI (MOLT-4 leukemia)?
Answer: > 100 µM

Question: And the TGI (NCI-H226 lung)?
Answer: > 100 µM

Question: What about the TGI (NCI-H23 lung) of the same molecule?
Answer: > 100 µM

Question: What about the TGI (NCI-H460 lung) of the same molecule?
Answer: 33.8 µM

Question: And the TGI (NCI/ADR-RES ovarian)?
Answer: > 100 µM

Question: What about the TGI (OVCAR-3 ovarian) of the same molecule?
Answer: 33.4 µM

Question: And the TGI (OVCAR-5 ovarian)?
Answer: 71.1 µM

Question: And the TGI (OVCAR-8 ovarian)?
Answer: 79.5 µM

Question: What about the TGI (PC-3 prostate) of the same molecule?
Answer: > 100 µM

Question: And the TGI (RXF 393 renal)?
Answer: > 100 µM

Question: And the TGI (SF-268 CNS)?
Answer: 56.4 µM

Question: And the TGI (SF-295 CNS)?
Answer: > 100 µM

Question: And the TGI (SF-539 CNS)?
Answer: 66 µM

Question: And the TGI (SK-MEL-2 melanoma)?
Answer: 67.7 µM

Question: What about the TGI (SK-MEL-28 melanoma) of the same molecule?
Answer: > 100 µM

Question: And the TGI (SK-MEL-5 melanoma)?
Answer: 26.6 µM

Question: What about the TGI (SK-OV-3 ovarian) of the same molecule?
Answer: > 100 µM

Question: What about the TGI (SN12C renal) of the same molecule?
Answer: 26.8 µM

Question: What about the TGI (SNB-75 CNS) of the same molecule?
Answer: > 100 µM

Question: What about the TGI (SW-620 colon) of the same molecule?
Answer: 80.5 µM

Question: And the TGI (T-47D breast)?
Answer: 33.5 µM

Question: And the TGI (TK-10 renal)?
Answer: > 100 µM

Question: What about the TGI (U251 CNS) of the same molecule?
Answer: 65.7 µM

Question: And the TGI (UACC-257 melanoma)?
Answer: > 100 µM

Question: What about the TGI (UACC-62 melanoma) of the same molecule?
Answer: 80.5 µM

Question: And the TGI (UO-31 renal)?
Answer: > 100 µM
